Laboratory results: patent US11873320B2 (REATA PHARMACEUTICALS HOLDINGS, LLC, priority 2013, dated 2024)
Read-outs that look alike come from different tables or passages of the source.

Columns and labels:
CD rats = experiment: pulmonary evaluation in rats; format: in vivo, rat; conditions: doses up to and including 30 mg/kg, single oral dose
Description: One additional group of eight animals/sex served as the control and received vehicle (sesame oil).
Observations for mortality, morbidity, injury, and availability of food and water were conducted twice daily for all animals. Clinical observations were conducted prior to dosing, approximately 4 hours post-dose, and following completion of the 8-hour pulmonary monitoring period. […] Pulmonary function (respiratory rate, tidal volume, and minute volume) was monitored for at least 1 hour prior to dosing to establish a baseline and for at least 8 hours post-dose.

CYP2B6 = experiment: CYP450 induction in cultured human hepatocytes: CYP2B6; format: in vitro ADME; conditions: up to 3 μM
[1] = metabolism in monkey liver microsomes; conditions: 60-minute incubation, NADPH and UGT
ocular inflammation = ocular inflammation after paracentesis in rabbits; format: in vivo, rabbit; conditions: 0.01% RTA 408 in the formulation
Description: Each rabbit was given three instillations within 60 minutes before induction of paracentesis and two instillations within 30 minutes after induction of paracentesis. Each instillation was 50 μL and given in both eyes. Aqueous humor for 6 animals per time-point was collected 30 minutes and again 2 hours after induction of paracentesis. The amount of inflammation was determined by protein concentration in the aqueous humor.

STAT3 phosphorylation = experiment: IL-6-induced STAT3 phosphorylation in HeLa cells; format: cell-based, human; conditions: 1 μM, 6 hours pretreatment
Source text: Osteoclastogenesis is a multi-step differentiation process that results from the binding of RANKL to its receptor, RANK, on cells of hematopoietic origin.

transaminase mRNA levels = experiment: transaminase gene expression in AML-12 hepatocytes; format: cell-based, mouse; conditions: 250 nM or 500 nM, 18 hours
Source text: (§1) One hypothesis for this effect is that AIMs directly or indirectly increase transaminase gene expression in the absence of cellular toxicity.

[2] = topical ocular administration pharmacokinetics in rabbits; format: in vivo, rabbit
Description: Using rabbits, the ocular absorption and systemic pharmacokinetic behavior of RTA 408 was evaluated.

rats = experiment: 28-day toxicity study in rats; format: in vivo, rat
Source text: as §1

cynomolgus monkeys [3] = experiment: cardiovascular evaluation in conscious cynomolgus monkeys (telemetry); format: in vivo, monkey
Description: Animals were instrumented with telemetry transmitters for measurement of body temperature, blood pressure, heart rate, and electrocardiogram (ECG) evaluation. Body temperature, systolic, diastolic, and mean arterial blood pressure, heart rate, and ECG parameters (QRS duration and RR, PR, and QT intervals) were monitored continuously from at least 2 hours pre-dose until at least 24 hours post-dose. ECG tracings were printed at designated time points from the cardiovascular monitoring data and were qualitatively evaluated by a board-certified veterinary cardiologist.
Observations for morbidity, mortality, injury, and availability of food and water were conducted at least twice daily for all animals. Clinical observations were conducted pre-dose, approximately 4 hours post-dose, and following completion of the cardiovascular monitoring period. Body weights were measured and recorded on the day prior to each treatment administration.

NQO1 = NQO1 activity in mouse tissues, 25 mg/kg PO QD×3; format: in vivo
RAW264.7 cells = experiment: WST-1 cell viability, RAW264.7; format: cell-based; conditions: Mus musculus
Description: Inhibition of IFNγ-induced NO production by AIMs is Nrf2-dependent (Dinkova-Kostova, 2005). […] Nitrite (NO2^−) levels in the media were measured as a surrogate for nitric oxide using the Griess reagent assay. Cell viability was assessed using the WST-1 assay. […] 63170, 63171, 63179, and 63189 are compounds of the formulas: […]

[4] = test system: radiation-induced oral mucositis; experiment: radiation-induced oral mucositis in hamsters
[5] = topical administration pharmacokinetics in rats; format: in vivo, rat; conditions: 0.01 to 3% in sesame oil
Source text: The topical administration was formulated as a suspension in sesame oil.

NQO1 and HMOX1 protein = experiment: Nrf2 target protein levels in BV2 cells; format: cell-based, mouse; conditions: concentrations up to 125 nM
cynomolgus monkeys [6] = conditions: for ALP (U/L) / ALT (U/L) / AST (U/L) / Albumin / BUN / Chol / Cr / Glucose / TG / Tot Bil / Tot Prot: Day 14
C2C12 muscle cells = experiment: glycolytic intermediates in C2C12 myotubes; format: cell-based, rodent
phosphorylation of IκBα = experiment: TNFα-induced phosphorylation of IκBα in HeLa cells (Western blot); format: cell-based, human; conditions: 6 h pretreatment, TNFα 20 ng/mL 5 min
Description: Total and phosphorylated levels of IκBα were evaluated by Western blot.

H6PD, PGD, TKT, ME1 mRNA = experiment: expression of genes involved in NADPH synthesis, HCT-116 cells; format: cell-based; conditions: 24 hours

## CC1(C)CC[C@]2(NC(=O)C(C)(F)F)CC[C@]3(C)[C@H](C(=O)C=C4[C@@]5(C)C=C(C#N)C(=O)C(C)(C)[C@@H]5CC[C@]43C)[C@@H]2C1 [RTA 408, N-((4aS,6aR,6bS,8aR,12aS,14aR,14bS)-11-cyano-2,2,6a,6b,9,9,12a-heptamethyl-10,14-dioxo-1,2,3,4,4a,5,6,6a,6b,7,8,8a,9,10,12a,14,14a,14b-octadecahydropicen-4a-yl)-2,2-difluoropropanamide]
CD rats
  basic pulmonary endpoints: did not produce any adverse effects
CYP2B6
  induction of enzyme activity: not an inducer
[1]
  parent molecule remaining: < 10%
Ocular inflammation
  aqueous humor protein concentration: reduction in aqueous humor protein similar to that of the highest concentration of any of the other reference compounds
STAT3 phosphorylation
  IL-6-induced phosphorylation of STAT3: inhibited phosphorylation of STAT3 induced by IL-6
Transaminase mRNA levels
  alanine transaminase 1 (Alt1 or Gpt1) mRNA: increased mRNA levels
  alanine transaminase 2 (Alt2 or Gpt2) mRNA: no effect
  aspartate transaminase 1 (Ast1 or Got1) mRNA: increased mRNA levels
  aspartate transaminase 2 (Ast2 or Got2) mRNA: reduced mRNA levels
[2]; ocular topical administration
  eye tissues with the highest concentrations: cornea, retina, or iris
[2]; once per day for 5 days
  plasma concentrations after oral vs topical ocular administration: ~100 fold
rats
  transaminases: Transaminase elevations
Cynomolgus monkeys [3]; 100 mg/kg oral, not considered related to treatment
  increase in the corrected QT interval (average): 1.6%
Cynomolgus monkeys [3]; doses up to and including 100 mg/kg oral
  effects on cardiovascular function: no effects on cardiovascular function
NQO1
  activation of NQO1 in multiple tissues: Meaningful activation of NQO1
RAW264.7 cells
  IC50: 125 nM
[4]; 100 mg/kg
  hamsters euthanized on Day 2 due to weight loss in excess of 20%: two out of eight
[4]; 30 and 100 mg/kg
  duration of ulcerative mucositis: significant reduction
[4]; hamster, in vivo
  percentage of animals with mucositis scores ≥3: dose-dependent decrease
[5]
  plasma concentrations after topical administration: lower plasma concentrations relative to similar oral dosing
NQO1 and HMOX1 protein
  NQO1 and HMOX1 protein levels: increased NQO1 and HMOX1 protein levels
Cynomolgus monkeys [6]; 10 mg/kg
  ALP (U/L): 382 U/L
  ALT (U/L): 46 U/L
  AST (U/L): 38 U/L
  Albumin: 4 g/dL
  BUN: 27 mg/dL
  Chol: 144 mg/dL
  Cr: 0.68 mg/dL
  Glucose: 39 mg/dL
  TG: 82 mg/dL
  Tot Bil: 0.23 mg/dL
  Tot Prot: 7.2 g/dL
Cynomolgus monkeys [6]; 30 mg/kg
  ALP (U/L): 416 U/L
  ALT (U/L): 47 U/L
  AST (U/L): 43 U/L
  Albumin: 4 g/dL
  BUN: 20 mg/dL
  Chol: 122 mg/dL
  Cr: 0.58 mg/dL
  Glucose: 53 mg/dL
  TG: 64 mg/dL
  Tot Bil: 0.2 mg/dL
  Tot Prot: 7.2 g/dL
Cynomolgus monkeys [6]; 100 mg/kg
  ALP (U/L): 390 U/L
  ALT (U/L): 43 U/L
  AST (U/L): 37 U/L
  Albumin: 3.2 g/dL
  BUN: 24 mg/dL
  Chol: 93 mg/dL
  Cr: 0.55 mg/dL
  Glucose: 32 mg/dL
  TG: 61 mg/dL
  Tot Bil: 0.18 mg/dL
  Tot Prot: 6 g/dL
Cynomolgus monkeys [6]; 14 days
  toxicity suggested by clinical chemistry data: no obvious toxicity
Cynomolgus monkeys [6]; PO QD×14
  mRNAs of Nrf2 target genes in liver and lung: induces Nrf2 target genes in monkey tissues
Cynomolgus monkeys [6]; all doses, 14 days
  tolerability: well-tolerated without adverse clinical signs
Cynomolgus monkeys [6]; monkey, in vivo
  Nrf2 target enzyme activity (NQO1, GSR) in various tissues: induces Nrf2 target enzyme activity
C2C12 muscle cells; 250 nM or 500 nM, 18 hours, P<0.0001
  intracellular pyruvate levels: increased intracellular pyruvate levels
C2C12 muscle cells; 1 μM or 2 μM, 3 hours
  intracellular and extracellular lactate levels: significantly increased intracellular and extracellular lactate levels
Phosphorylation of IκBα
  TNFα-induced phosphorylation of IκBα: inhibited TNFα-induced phosphorylation of IκBα in a dose-dependent manner
H6PD, PGD, TKT, ME1 mRNA
  mRNA levels of H6PD, PGD, TKT, ME1: dose-dependent increase in expression of genes involved in NADPH synthesis
